The source of these data is article PMC3812159, “A Comparative Analysis of the Ubiquitination Kinetics of Multiple Degrons to Identify an Ideal Targeting Sequence for a Proteasome Reporter” (PLoS ONE, 2013).

One data set deals with T1, Hdm2 (Homo sapiens, UniProt Q00987).
T1 construct: purchased Enzo Life Sciences
Description: Cell-free ubiquitination assay. Format: biochemical. The following applies: 1 µM Hdm2, 1 µM Ube1, 10 µM UbcH5b, 10 µM peptide, wild type ubiquitin, 2 hours at 30°C. Here is the method:
Samples were run on gels and imaged as described above.
(§1) Figure 5 Variations in E3 ligase activity result in fluxuations in degron-based substrate ubiquitination. (A) To evaluate the impact of different levels of E3 ligase activity, the four top performing degron-based substrates (β-Catenin, Bonger, iNOS, and p53) were incubated in lysates from four different cell lines (HeLa, U937, THP-1, and HL60) in the ubiquitin pull down assay. Further, the assay was supplemented with wild type ubiquitin to examine polyubiquitin chain formation. All reaction mixtures were incubated for 2 hours at 37°C prior to continuation with the pull down assay. (B) The effects of a NEDD8 inhibitor (MLN-4924) and an E1 inhibitor (PYR-41) were examined on the TAZ-based substrate (a target of the SCF^βTrCP E3 ligase). The ubiquitin pull down was performed as previously described with the reactions incubated for 2 hours with the listed inhibitor concentrations at 37°C prior to continuation with the pull down assay. (C) A cell-free ubiquitination assay was performed on the p53-based substrate using an enzymatic cascade culminating with 1 µM Hdm2 and supplemented with wild type ubiquitin. Lane 1 contains all assay components, lane 2–4 were control experiments removing a member of the E1–E3 enzymatic cascade. […]

Data set [1] concerns TAZ-based substrate ubiquitination (a target of the SCF^βTrCP E3 ligase). Description: Ubiquitin pull down of TAZ-based substrate with inhibitors of the E1-E3 cascade. Particulars: 2 hours at 37°C with inhibitor, gel, concentrations only in Figure 5b. It counts as biochemical. Here is the method:
as §1, with “assay.” for “assay. (C) A cell-free ubiquitination assay was performed on the p53-based substrate using an enzymatic cascade culminating with 1 µM Hdm2 and supplemented with wild type ubiquitin. Lane 1 contains all assay components, lane 2–4 were control experiments removing a member of the E1–E3 enzymatic cascade.”
To perform a more precise analysis of the impact of variations in E3 ligase activity on degron-based substrate ubiquitination and to identify any issues with peptide specificity, the second route of experimentation was the application of known inhibitors of the E1–E3 enzymatic cascade. […] To examine the effects of partially inhibiting SCF^βTrCP, TAZ-based substrate ubiquitination was assessed in the presence and absence of this inhibitor (Figure 5b).

Data set [2] concerns HeLa S100 cytosolic lysates as the source of E1, E2, and E3 enzymes. Briefly: Ubiquitin pull down assay with methylated ubiquitin, multi-monoubiquitination kinetic model. It counts as biochemical. The following applies: ratio of fitted rate constants, >1 favours ubiquitination, <1 degradation. An excerpt: A second model based on substrate multi-monoubiquitination was developed and evaluated. This model assumed that the generation of di-, tri-, and tetra-ubiquitinated species was the result of multiple methylated ubiquitins being conjugated to the multiple available lysines found on the degron-based substrate (Figure 3a). As opposed to the polyubiquitination model, the multi-monoubiquitination model accurately fit the data for all eight degron-based substrates (Figure 3b–d, Figure S4 in File S1, Table 2). Using this model, kinetic rate constants for all ubiquitination (k1 for mono-, k2 for di-, k3 for tri-, and k4 for tetra-) and peptidase-dependent degradation steps (Table 2) were calculated. The multi-monoubiquitination model nicely corresponded to the observed results in Figure 2. […] The model also captured the preference for di-ubiquitination of the Cyclin D1 degron (k2 is two-fold greater than k1) and the equal preference of mono- and di-ubiquitination states found in the HIF-1α degron (k1 of 2.6 and k2 of 3.0). Further, the similar behavior and observed kinetics for IFNAR and TAZ degrons were mostly likely due to the fact that these degrons are recognized by the same E3 ligase, SCF^βTrCP (Table 1). To test the robustness of the multi-monoubiquitination model, a ninth substrate based on the degron from the protein β-Catenin was assessed. This substrate was selected because it is ubiquitinated by the same E3 ligase as TAZ and IFNAR1, SCF^βTrCP. The model accurately fit the data for the multi-monoubiquitination of the β-Catenin degron-based substrate with similar rate constants compared to the TAZ and IFNAR1-based substrates (Table 2). Finally, it was important to assess the validity of the model by addressing the relative goodness of fit between the experimental data and the model predictions as determined from the multi-monoubiquitination model. For this particular analysis it was decided to calculate the sample Pearson correlation coefficient (Eq. S10 in File S1), a widely used metric to measure the dependence between two variables. A correlation coefficient was calculated between the model predictions and experimental data for mono-, di-, tri-, and tetra-ubiquitinated substrate for all nine degron-based substrates (Table S1 in File S1). As per convention, a positive value approaching 1 corresponds to a very good fit, which is observed for all nine substrates indicating a good fit between model and data.

A further data set has as its system SCF^βTrCP. Particulars: published substrate; optimized test tube reaction with excess E1, E2, and E3 ligases, no competing peptidases; cited from earlier work. An excerpt:
While there exist kinetic studies of specific E3 ligases, [47], [48] and individual degrons there has not been a comprehensive analysis of ubiquitination kinetics of multiple degrons in a single study. The presented work allowed for the calculation of rate constants for multiple degrons in a single cell line, effectively comparing the ubiquitination kinetics of different E3 ligase targets.

The subject of data set [3] is endogenous proteases and peptidases found in the S100 lysates.
Description: The in vitro ubiquitination assay was carried out at the indicated times at 37°C in a total reaction volume of 25 µL containing assay buffer (10 mM Tris-HCl pH 7.6 and 5 mM MgCl2) with 2 mM DTT, 20 µg/mL ubiquitin aldehyde (Boston Biochem), 400 µg/mL methylated ubiquitin (Enzo Life Sciences), 1×ATP energy regenerating solution (ATP-ERS, Boston Biochem), 100 µM of the proteasome inhibitor MG-132 (EMD Chemicals), 2 mg/mL HeLa S100 cytosolic lysates as the source of E1, E2, and E3 enzymes, 750 ng of indicated peptide substrate, and inhibitors Complete ULTRA and PhosSTOP (Roche). Reactions were halted by addition of 2× tricine sample buffer (Bio-Rad) and subsequent boiling. Samples were loaded onto SDS page gels (precast 16.5% Mini PROTEAN Tris-Tricine, Bio-Rad) using 1× tris-tricine running buffer and visualized with a Typhoon Imager (GE Healthcare Life Sciences). Gels were quantified using ImageJ (US National Institute of Health) by comparing sample intensity to unreacted parent peptide intensity, which is not depicted in the gels.
Ubiquitin pull down assays were performed similarly to the in vitro ubiquitination assay as described above, with the exception of a total volume of 100 µL and 4.2 µg of peptide substrate. At the end of the indicated times, samples were incubated with Control-Agarose beads (LifeSensors), diluted in TBS-T buffer (20 mM Tris-HCl pH 8.0, 150 mM NaCl, and 0.1% v/v Tween-20), for 60 min on a tube rotator at 4°C. Samples were subsequently centrifuged at 1800×g for 5 min to pellet and remove control beads. The supernatant was transferred to solution of Agarose-TUBES1 (LifeSensors) diluted in TBS-T and incubated overnight on a tube rotator at 4°C. Ubiquitin-bound beads were washed 5× with TBS-T and then the samples were eluted off of the bead with 2× tricine sample buffer, boiled for 5 min, and then isolated by centrifugation for 5 min at 13000×g. Samples were loaded onto an SDS PAGE gel, electrophoresed, visualized and quantified as described above.
The series of ordinary differential equations were solved in MATLAB using ODE15s and the boundary conditions defined in equations S1–S6. Kinetic rate constants were determined using a Markov Chain Monte Carlo (MCMC) algorithm in MATLAB by minimizing the cumulative sum of the squared deviations (cSSD), as defined by equations S8–S9, between the calculated and experimental data similar to previous work by Cirit et. al. [23].
To accomplish this objective, a kinetic model was developed to describe the step-wise ubiquitination of the degron-based substrates. The goal of this model was to both determine the reaction kinetics for ubiquitin transfer to the degron-based substrates and distinguish polyubiquitination from multi-monoubiquitination. […] Each step in the reaction was described by a corresponding rate constant (k1–k9). Due to the presence of the deubiquitinating enzyme (DUB) inhibitor ubiquitin aldehyde, substrate deubiquitination was neglected. Further, the proteasome inhibitor MG-132 was added at an appropriate amount to neglect proteasome-mediated degradation of the substrates.

T1 sequence (Q00987 whole entry): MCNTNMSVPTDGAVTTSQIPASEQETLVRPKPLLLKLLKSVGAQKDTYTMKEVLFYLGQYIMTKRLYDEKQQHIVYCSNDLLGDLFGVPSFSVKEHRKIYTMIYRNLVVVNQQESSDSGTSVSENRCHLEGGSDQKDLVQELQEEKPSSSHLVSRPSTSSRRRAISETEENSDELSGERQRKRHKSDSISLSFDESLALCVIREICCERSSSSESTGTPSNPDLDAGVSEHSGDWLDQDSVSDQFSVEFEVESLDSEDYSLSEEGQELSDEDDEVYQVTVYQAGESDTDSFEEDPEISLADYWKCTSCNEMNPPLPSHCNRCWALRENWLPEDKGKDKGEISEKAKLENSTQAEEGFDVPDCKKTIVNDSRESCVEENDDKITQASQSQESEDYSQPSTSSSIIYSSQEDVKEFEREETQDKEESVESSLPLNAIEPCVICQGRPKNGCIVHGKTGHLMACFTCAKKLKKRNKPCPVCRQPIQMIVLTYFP

`CN(C)CCCNc1c2c(=O)n(C)c(=O)nc-2n(C)c2ccccc12` [HLI-373]: the “effect of inhibitor on Hdm2-dependent ubiquitination of the p53-based substrate” value at Hdm2 (inhibitor 1, 10 µM) is given as “No decrease”.

In the case of `NS(=O)(=O)OC[C@@H]1C[C@@H](n2ccc3c(N[C@H]4CCc5ccccc54)ncnc32)C[C@@H]1O` [MLN-4924], the “effect of inhibitor on ubiquitination of the TAZ-based substrate” value in data set [1] is on record as “slightly impaired”.

Take `Cc1ccc2ccc(C(Nc3ccccc3)c3ccccc3)c(O)c2n1` (stereo not shown) [NSC-66811]: the “effect of inhibitor on Hdm2-dependent ubiquitination of the p53-based substrate” value at Hdm2 (inhibitor 1 µM dose) is given as “pronounced decrease”.

For `CCOC(=O)c1ccc(N2NC(=O)/C(=C/c3ccc([N+](=O)[O-])o3)C2=O)cc1` [PYR-41], the “effect of inhibitor on ubiquitination of the TAZ-based substrate” value in data set [1] is recorded as “reduced ubiquitination”.

On to “KAWQQQSYLDSGIHSGATTTAPK(FAM)KKK [β-Catenin]”, for which the “k1/k5, mono-ubiquitination vs. degradation of unmodified substrate” value in data set [2] was 1.55. In addition, the “rate constant for β-Catenin ubiquitination previously reported” value in the data set on SCF^βTrCP was 0.28 min⁻¹. Moreover, in data set [3], the “k6, rate constant for peptidase-dependent degradation of mono-ubiquitinated substrate” value was 0.1 (1/min)*10^3; the “k7, rate constant for peptidase-dependent degradation of di-ubiquitinated substrate” value was 0.1 (1/min)*10^3; the “k8, rate constant for peptidase-dependent degradation of tri-ubiquitinated substrate” value was 1.0 (1/min)*10^3; the “k9, rate constant for peptidase-dependent degradation of tetra-ubiquitinated substrate” value is recorded as 3.0 (1/min)*10^3.
